According to patent publication US12617779B2, “Self degradation-type CDK9 inhibitor prodrug and liposome encapsulating same” (Sumitomo Pharma Co., Ltd., priority 2021, dated 2026):

Assay: Evaluation of conversion rate to active form in buffer solution (Experimental Example 1)
Type: physicochemical
Settings: for Alvocidib amount produced, after subtracting the 28.2% Alvocidib of the sample (Table 36-2) / Production rate of Alvocidib / Residual rate: 37° C.; for Production rate of Alvocidib / Residual rate: 25 umol/L in buffer solution; for Stability in buffer solution at pH 5: pH 5, 37° C., up to 2 or 3 hours; for Conversion to Alvocidib at pH 7.4: pH 7.4, 37° C., up to 3 hours
Outline: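 Compounds at 25 umol/L were held at 37 °C in 50 mM citrate (pH 5.0, 5.5) or phosphate (pH 6.0–7.4) buffers. Remaining compound and Alvocidib formed were quantified by HPLC at 0, 0.5, 1, 2 and 3 h.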

## CN1CC[C@H](c2c(OC(=O)N(CCCC(F)(F)F)CC3CCCCN3)cc(O)c3c(=O)cc(-c4ccccc4Cl)oc23)[C@H](O)C1 (stereo partly drawn) [Example 14, 2-(2-chlorophenyl)-5-hydroxy-8-[(3S,4R)-3-hydroxy-1-methylpiperidin-4-yl]-4-oxo-4H-1-benzopyran-7-yl [(piperidin-2-yl)methyl](4,4,4-trifluorobutyl)carbamate]
pH5.0, 0 hr
  Alvocidib amount produced, after subtracting the 28.2% Alvocidib of the sample (Table 36-2): 1.0%
  Production rate of Alvocidib: 29.2%
  Residual rate: 56.6%
  Stability in buffer solution at pH 5: stable
  Conversion to Alvocidib at pH 7.4: rapidly converted to Alvocidib
pH5.0, 0.5 hr
  Alvocidib amount produced, after subtracting the 28.2% Alvocidib of the sample (Table 36-2): 1.7%
  Production rate of Alvocidib: 29.9%
  Residual rate: 54.6%
pH5.0, 1 hr
  Alvocidib amount produced, after subtracting the 28.2% Alvocidib of the sample (Table 36-2): 3.5%
  Production rate of Alvocidib: 31.7%
  Residual rate: 53.0%
pH5.0, 2 hr
  Alvocidib amount produced, after subtracting the 28.2% Alvocidib of the sample (Table 36-2): 4.9%
  Production rate of Alvocidib: 33.1%
  Residual rate: 51.0%
pH5.0, 3 hr
  Alvocidib amount produced, after subtracting the 28.2% Alvocidib of the sample (Table 36-2): 5.2%
  Production rate of Alvocidib: 33.4%
  Residual rate: 52.7%
pH5.5, 0 hr
  Alvocidib amount produced, after subtracting the 28.2% Alvocidib of the sample (Table 36-2): 0.8%
  Production rate of Alvocidib: 29.0%
  Residual rate: 57.5%
pH5.5, 0.5 hr
  Alvocidib amount produced, after subtracting the 28.2% Alvocidib of the sample (Table 36-2): 2.7%
  Production rate of Alvocidib: 30.9%
  Residual rate: 55.8%
pH5.5, 1 hr
  Alvocidib amount produced, after subtracting the 28.2% Alvocidib of the sample (Table 36-2): 4.5%
  Production rate of Alvocidib: 32.7%
  Residual rate: 54.3%
pH5.5, 2 hr
  Alvocidib amount produced, after subtracting the 28.2% Alvocidib of the sample (Table 36-2): 7.2%
  Production rate of Alvocidib: 35.4%
  Residual rate: 48.6%
pH5.5, 3 hr
  Alvocidib amount produced, after subtracting the 28.2% Alvocidib of the sample (Table 36-2): 9.7%
  Production rate of Alvocidib: 37.9%
  Residual rate: 47.7%
pH6.0, 0 hr
  Alvocidib amount produced, after subtracting the 28.2% Alvocidib of the sample (Table 36-2): 0.9%
  Production rate of Alvocidib: 29.1%
  Residual rate: 55.8%
pH6.0, 0.5 hr
  Alvocidib amount produced, after subtracting the 28.2% Alvocidib of the sample (Table 36-2): 6.2%
  Production rate of Alvocidib: 34.4%
  Residual rate: 49.7%
pH6.0, 1 hr
  Alvocidib amount produced, after subtracting the 28.2% Alvocidib of the sample (Table 36-2): 10.9%
  Production rate of Alvocidib: 39.1%
  Residual rate: 44.8%
pH6.0, 2 hr
  Alvocidib amount produced, after subtracting the 28.2% Alvocidib of the sample (Table 36-2): 22.0%
  Production rate of Alvocidib: 50.2%
  Residual rate: 31.8%
pH6.0, 3 hr
  Alvocidib amount produced, after subtracting the 28.2% Alvocidib of the sample (Table 36-2): 27.7%
  Production rate of Alvocidib: 55.9%
  Residual rate: 24.5%
pH6.5, 0 hr
  Alvocidib amount produced, after subtracting the 28.2% Alvocidib of the sample (Table 36-2): 3.4%
  Production rate of Alvocidib: 31.6%
  Residual rate: 52.2%
pH6.5, 0.5 hr
  Alvocidib amount produced, after subtracting the 28.2% Alvocidib of the sample (Table 36-2): 17.6%
  Production rate of Alvocidib: 45.8%
  Residual rate: 35.2%
pH6.5, 1 hr
  Alvocidib amount produced, after subtracting the 28.2% Alvocidib of the sample (Table 36-2): 28.9%
  Production rate of Alvocidib: 57.1%
  Residual rate: 22.9%
pH6.5, 2 hr
  Alvocidib amount produced, after subtracting the 28.2% Alvocidib of the sample (Table 36-2): 34.8%
  Production rate of Alvocidib: 63.0%
  Residual rate: 14.0%
pH6.5, 3 hr
  Alvocidib amount produced, after subtracting the 28.2% Alvocidib of the sample (Table 36-2): 44.4%
  Production rate of Alvocidib: 72.6%
  Residual rate: 5.1%
pH7.0, 0 hr
  Alvocidib amount produced, after subtracting the 28.2% Alvocidib of the sample (Table 36-2): 2.5%
  Production rate of Alvocidib: 30.7%
  Residual rate: 53.4%
pH7.0, 0.5 hr
  Alvocidib amount produced, after subtracting the 28.2% Alvocidib of the sample (Table 36-2): 33.8%
  Production rate of Alvocidib: 62.0%
  Residual rate: 16.3%
pH7.0, 1 hr
  Alvocidib amount produced, after subtracting the 28.2% Alvocidib of the sample (Table 36-2): 39.8%
  Production rate of Alvocidib: 68.0%
  Residual rate: 8.4%
pH7.0, 2 hr
  Alvocidib amount produced, after subtracting the 28.2% Alvocidib of the sample (Table 36-2): 47.3%
  Production rate of Alvocidib: 75.5%
  Residual rate: 1.1%
pH7.0, 3 hr
  Alvocidib amount produced, after subtracting the 28.2% Alvocidib of the sample (Table 36-2): 47.0%
  Production rate of Alvocidib: 75.2%
  Residual rate: 0.4%
pH7.4, 0 hr
  Alvocidib amount produced, after subtracting the 28.2% Alvocidib of the sample (Table 36-2): 7.7%
  Production rate of Alvocidib: 35.9%
  Residual rate: 45.8%
pH7.4, 0.5 hr
  Alvocidib amount produced, after subtracting the 28.2% Alvocidib of the sample (Table 36-2): 43.4%
  Production rate of Alvocidib: 71.6%
  Residual rate: 4.6%
pH7.4, 1 hr
  Alvocidib amount produced, after subtracting the 28.2% Alvocidib of the sample (Table 36-2): 48.4%
  Production rate of Alvocidib: 76.6%
  Residual rate: 0.7%
pH7.4, 2 hr
  Alvocidib amount produced, after subtracting the 28.2% Alvocidib of the sample (Table 36-2): 47.4%
  Production rate of Alvocidib: 75.6%
  Residual rate: 0.2%
pH7.4, 3 hr
  Alvocidib amount produced, after subtracting the 28.2% Alvocidib of the sample (Table 36-2): 47.5%
  Production rate of Alvocidib: 75.7%
  Residual rate: 0.3%

## CN1CC[C@H](c2c(OC(=O)N(Cc3ccccc3)CC3CCCCN3)cc(O)c3c(=O)cc(-c4ccccc4Cl)oc23)[C@H](O)C1 (stereo partly drawn) [Example 15, 2-(2-chlorophenyl)-5-hydroxy-8-[(3S,4R)-3-hydroxy-1-methylpiperidin-4-yl]-4-oxo-4H-1-benzopyran-7-yl benzyl [(piperidin-2-yl)methyl]carbamate]
pH5.0, 0 hr
  Production rate of Alvocidib: 1.4%
  Residual rate: 95.6%
  Stability in buffer solution at pH 5: stable
  Conversion to Alvocidib at pH 7.4: rapidly converted to Alvocidib
pH5.0, 0.5 hr
  Production rate of Alvocidib: 1.9%
  Residual rate: 95.2%
pH5.0, 1 hr
  Production rate of Alvocidib: 2.6%
  Residual rate: 94.7%
pH5.0, 2 hr
  Production rate of Alvocidib: 3.8%
  Residual rate: 93.5%
pH5.0, 3 hr
  Production rate of Alvocidib: 4.6%
  Residual rate: 92.5%
pH5.5, 0 hr
  Production rate of Alvocidib: 1.4%
  Residual rate: 95.6%
pH5.5, 0.5 hr
  Production rate of Alvocidib: 2.8%
  Residual rate: 94.2%
pH5.5, 1 hr
  Production rate of Alvocidib: 4.5%
  Residual rate: 92.7%
pH5.5, 2 hr
  Production rate of Alvocidib: 7.8%
  Residual rate: 89.5%
pH5.5, 3 hr
  Production rate of Alvocidib: 9.5%
  Residual rate: 87.8%
pH6.0, 0 hr
  Production rate of Alvocidib: 1.5%
  Residual rate: 95.5%
pH6.0, 0.5 hr
  Production rate of Alvocidib: 6.2%
  Residual rate: 91.0%
pH6.0, 1 hr
  Production rate of Alvocidib: 12.4%
  Residual rate: 84.7%
pH6.0, 2 hr
  Production rate of Alvocidib: 22.3%
  Residual rate: 62.8%
pH6.0, 3 hr
  Production rate of Alvocidib: 25.7%
  Residual rate: 56.7%
pH6.5, 0 hr
  Production rate of Alvocidib: 1.9%
  Residual rate: 94.8%
pH6.5, 0.5 hr
  Production rate of Alvocidib: 15.1%
  Residual rate: 82.2%
pH6.5, 1 hr
  Production rate of Alvocidib: 26.1%
  Residual rate: 56.3%
pH6.5, 2 hr
  Production rate of Alvocidib: 44.6%
  Residual rate: 32.9%
pH6.5, 3 hr
  Production rate of Alvocidib: 52.4%
  Residual rate: 24.3%
pH7.0, 0 hr
  Production rate of Alvocidib: 2.8%
  Residual rate: 94.1%
pH7.0, 0.5 hr
  Production rate of Alvocidib: 40.7%
  Residual rate: 38.5%
pH7.0, 1 hr
  Production rate of Alvocidib: 56.9%
  Residual rate: 7.1%
pH7.0, 2 hr
  Production rate of Alvocidib: 69.8%
  Residual rate: 3.8%
pH7.0, 3 hr
  Production rate of Alvocidib: 69.9%
  Residual rate: 3.9%
pH7.4, 0 hr
  Production rate of Alvocidib: 4.8%
  Residual rate: 92.2%
pH7.4, 0.5 hr
  Production rate of Alvocidib: 54.7%
  Residual rate: 21.1%
pH7.4, 1 hr
  Production rate of Alvocidib: 67.3%
  Residual rate: 8.0%
pH7.4, 2 hr
  Production rate of Alvocidib: 75.2%
  Residual rate: 3.1%
pH7.4, 3 hr
  Production rate of Alvocidib: 77.2%
  Residual rate: 2.9%
